# According to article PMC11491004, “CHF6523 data suggest that the phosphoinositide 3-kinase delta isoform is not a suitable target for the management of COPD” (Respiratory Research, 2024):
# Legend:
# Type in all cases: in vivo, human
# [1] = tested on: genes in blood and sputum; assay: Transcriptomics (RNA-seq) in blood and sputum
# Procedure: PAXgene RNA blood samples and induced sputum samples collected in Trizol were analysed at Almac Diagnostic Services (Craigavon, Northern Ireland, UK). RNA extraction and quality assessment of the PAXGene blood and sputum samples were performed, prior to downstream next generation sequencing (NGS). To minimise any technical variability, samples were randomised into processing batches for RNA extraction and NGS library preparation.
# After extraction, all RNA underwent quality assessment. PAXGene RNA samples were assessed using a combination of Nanodrop (quantity) and the Agilent Tapestation (integrity), and Sputum RNA samples were assessed using the Qubit RNA assay (quantity) and Agilent Tapestation (integrity). Nanodrop was used for quantity assessment of RNA extracted from sputum in order to preserve a sample for downstream library preparation input.
# Upon successful completion of the quality assessment, samples underwent library preparation using Kapa RNA Hyperprep with Riboerase kit. PAXGene Blood RNA samples were also treated with globin depletion oligos. Following library preparation, all generated libraries underwent quality assessment (quantification via Quant-iT dsDNA high-sensitivity assay, and fragment size assessment via the Agilent Tapestation) before being loaded on to a NovaSeq 6000 and sequenced with a total read length of 2x76bp, to a read budget of 50 million paired end reads (total 100 million reads) per sample. Processing control samples were included in the processing batch. Upon completion of sequencing, the quality of sequencing was assessed for the following parameters: clusters passing filter, Q30 scores, error rate, cluster density and read distribution.
# Raw sequence data in FASTQ format were subject to a number of quality control assessment steps hosted on the DNAnexus cloud platform. Basic sequencing metrics such as GC content were calculated from unaligned reads using FastQC. Potential ribosomal RNA (rRNA) contamination was assessed using the Burrows-Wheeler Aligner (BWA) and samtools flagstat to determine the number of reads aligning to a ribosomal RNA (rRNA) sequence database. Read alignment to the human reference genome GRCh38 was then performed using StarAlign, with outputs used to calculate post-alignment quality control (QC) metrics such as duplication rate, calculated using Picard MarkDuplicates and a housekeeping coverage metric using a custom script. […] Both pre- and post alignment QC metrics were then reviewed to check for potential problems originating from the sequencing run or starting library material.
# The aim was to identify genes that were differentially expressed in response to treatment with CHF6523 from blood and sputum samples.
# The ANCOVA model was specified as change from pre-dose to post-dose expression as dependent variable. The independent variables were treatment (reference: placebo), patient, period, and pre-dose expression.
# Functional enrichment was performed on those differentially expressed gene lists that had at least 20 genes with FDR<0.05 using ToppFun enrichment on the ToppGene website (https://toppgene.cchmc.org/enrichment.jsp, accessed 05 May 2023 [4]). The background of the enrichment used were those genes that were available in the original datamatrix.
# [2] = tested on: sputum cell counts; assay: Cell count in induced sputum; conditions: p < 0.05
# Procedure: All assessment timings were based on the morning dose. Pre-dose on Days 1 and 28 of each treatment period, blood samples were taken for pharmacokinetic analyses, followed by forced oscillation (including slow vital capacity manoeuvres for inspiratory capacity [IC] and vital capacity [VC]), spirometry (forced expiratory volume in 1 s [FEV1] and forced vital capacity [FVC]), and the COPD Assessment Test (CAT). Blood samples were also taken up to 12 h post-dose on Days 1 and 28 for pharmacokinetic analyses, with blood samples for biomarker assessment pre-dose on Day 1 and 2 h post-dose on Day 28, and spirometry pre-dose on Days 20 and 24. […]
# Fold-change from baseline in cell counts, target biomarkers in sputum and blood, and PIP3 were log-transformed and analysed using an analysis of covariance (ANCOVA) model, with treatment, patient, and period as fixed effects, and baseline value as covariate. Changes from baseline in spirometry, forced oscillation and CAT endpoints were analysed using a similar ANCOVA model, but without log transformation. Rescue medication data were analysed using an analysis of variance model, including treatment, period and patient as fixed effects. […]
# To induce sputum, patients with FEV1 ≥0.8 L inhaled nebulised hypertonic saline at increasing concentrations (3%, then 4% and finally 5%), with FEV1 monitored for safety after each concentration. […]
# [3] = Cough episodes: daily diary and visual analogue scale; conditions: for Mean cough VAS score (95% CI): VAS 100 mm, 0 no cough, 100 worst cough ever
# Procedure: Fold-change from baseline in cell counts, target biomarkers in sputum and blood, and PIP3 were log-transformed and analysed using an analysis of covariance (ANCOVA) model, with treatment, patient, and period as fixed effects, and baseline value as covariate. Changes from baseline in spirometry, forced oscillation and CAT endpoints were analysed using a similar ANCOVA model, but without log transformation. Rescue medication data were analysed using an analysis of variance model, including treatment, period and patient as fixed effects. Other data, including the proportion of days on which patients coughed and the cough VAS results, are presented descriptively only. Further details, including the transcriptomics, mass-spectrometry and Olink proteomics, bioinformatics and multi-omic data integration are in the supplement.
compound,measurement,setting,value
C[C@@H](c1oc(=O)c2ccccc2c1-c1cccc(CN2CCN(C)CC2)c1)n1nc(-c2cncc(O)c2)c2c(N)ncnc21 [CHF6523],Differentially expressed genes in blood,"[1]; blood, RNA-seq, 24 patients",No differentially expressed genes
same,|log2FC| of the six genes with |log2FC| >1,[1]; sputum,1.019–1.067
same,TLR1 log2FC,"[1]; sputum, FDR = 0.0155",0.71
same,TLR10 log2FC,"[1]; sputum, FDR = 0.0418",0.48
same,TLR6 log2FC,"[1]; sputum, FDR = 0.0451",0.52
same,Genes significantly differentially expressed in sputum,"[1]; sputum, RNA-seq, FDR < 0.05, more than 38,000 genes evaluated",126 genes
same,Differentially expressed genes in sputum that were upregulated,"[1]; sputum, of 126",119 genes
same,CHF6523–placebo differences in sputum cell counts,[2],no statistically significant
same,"Days on which patients coughed, adjusted mean","[3]; daily diary, 2 mg twice daily inhaled, 95% CI 63.5%, 84.5%",74.0%
same,Mean cough VAS score (95% CI),[3]; evening,"31.3 (22.1, 40.4) mm"
same,Cough events not resolving within 1 h after inhalation,[3]; in vivo,3.2%
same,Mean cough VAS score (95% CI),[3]; morning,"30.3 (95% CI 21.3, 39.3) mm"
